In article PMC9127750, “Structure-based design of CDC42 effector interaction inhibitors for the treatment of cancer” (Cell reports, 2022):
“And” between values parts separate entries of the source, which are not always exact repeats. Equal values may be shown once.

System: WM3248 melanoma cells, 486 antibodies
Assay: Reverse phase protein arrays (RPPA)
Format: cell-based, Human
Description: Pellets were snap frozen in liquid nitrogen and shipped to MD Anderson Cancer Center core RPPA facility for RPPA analysis (Table S5). Three biological replicates for each sample were generated.
Nomenclatures on the RPPA heatmaps: name_of_antibody.species_of_antibody.status_of_antibody. V - antibody validated; C - validation of antibody in progress; Q - antibody nonspecific; E – under evaluation; antibodies raised in M - mouse, G - goat, R - rabbit, or T - rat.

CN(C)c1cccc(Nc2cc(-c3ccccc3)nc(C3CCNCC3)n2)c1 [ARN22089, N1,N1-dimethyl-N3-(6-phenyl-2-(piperidin-4-yl)pyrimidin-4-yl)benzene-1,3-diamine]
Caspase.8.cleaved.R.C normalized signal (Norm_5 Average): 0.982
Caveolin.1.R.V normalized signal (Norm_5 Average): 0.855
Cdc6.R.V normalized signal (Norm_5 Average): 0.979
Cdc42.R.C normalized signal (Norm_5 Average): 1.009
Chk1.M.C normalized signal (Norm_5 Average): 0.909
Chk2.M.V normalized signal (Norm_5 Average): 0.853
Chk2_pT68.R.C normalized signal (Norm_5 Average): 1.060
Claudin.7.R.V normalized signal (Norm_5 Average): 0.926
Collagen.VI.R.V normalized signal (Norm_5 Average): 1.116
Complex.II.Subunit.M.V normalized signal (Norm_5 Average): 0.975
Cox2.R.C normalized signal (Norm_5 Average): 1.135
Cox.IV.R.V normalized signal (Norm_5 Average): 1.022
CtIP.R.V normalized signal (Norm_5 Average): 0.975
Cyclin.B1.R.V normalized signal (Norm_5 Average): 0.972
Cyclin.D3.M.V normalized signal (Norm_5 Average): 0.904
Cyclin.E1.R.V normalized signal (Norm_5 Average): 0.936
DAPK1_pS308.M.C normalized signal (Norm_5 Average): 1.256
DDB.1.R.V normalized signal (Norm_5 Average): 1.059
DDR1_pY513.R.C normalized signal (Norm_5 Average): 0.981
DM.K9.Histone.H3.M.V normalized signal (Norm_5 Average): 0.933
DNA.Ligase.IV.R.C normalized signal (Norm_5 Average): 1.034
DNA_POLG.R.V normalized signal (Norm_5 Average): 0.987
c.Jun_pS73.R.V normalized signal (Norm_5 Average): 0.785
c.Met_pY1234_Y1235.R.V normalized signal (Norm_5 Average): 1.005
c.Myc.R.C normalized signal (Norm_5 Average): 1.002
cdc2_pY15.R.C normalized signal (Norm_5 Average): 1.020
cdc25C.R.V normalized signal (Norm_5 Average): 0.901
C.Raf.R.C normalized signal (Norm_5 replicates): 0.928 and 0.922 and 1.015
C.Raf_pS338.R.V normalized signal (Norm_5 replicates): 1.100 and 1.059 and 1.133
CA9.R.C normalized signal (Norm_5 replicates): 0.890 and 0.944 and 0.999
CD2.M.C normalized signal (Norm_5 replicates): 0.910 and 0.933 and 1.035
CD4.R.V normalized signal (Norm_5 replicates): 1.047 and 1.004 and 1.101
CD5.M.C normalized signal (Norm_5 replicates): 0.985 and 1.051
CD20.R.C normalized signal (Norm_5 replicates): 0.992 and 1.004 and 0.765
CD26.R.V normalized signal (Norm_5 replicates): 0.918 and 1.107 and 0.927
CD29.M.V normalized signal (Norm_5 replicates): 0.891 and 0.950 and 1.049
CD31.M.V normalized signal (Norm_5 replicates): 0.904 and 0.900 and 1.048
CD38.R.C normalized signal (Norm_5 replicates): 0.928
CD44.R.C normalized signal (Norm_5 replicates): 0.917 and 1.058 and 0.855
CD45.M.V normalized signal (Norm_5 replicates): 0.930 and 1.021
CD49b.M.V normalized signal (Norm_5 replicates): 0.968 (2×) and 1.000
CD68.M.C normalized signal (Norm_5 replicates): 0.960 and 0.996 and 0.977
CD74.M.V normalized signal (Norm_5 replicates): 0.856 and 0.898 and 1.027
CD134.R.V normalized signal (Norm_5 replicates): 0.925 and 0.944
CD171.M.V normalized signal (Norm_5 replicates): 0.619 and 0.917 and 0.812
CDK1_pT14.R.C normalized signal (Norm_5 replicates): 0.861 and 1.206
CDK9.R.V normalized signal (Norm_5 replicates): 0.898 and 0.959 and 1.009
CDKN2A.R.C normalized signal (Norm_5 replicates): 0.913 and 0.846 and 1.064
CDT1.R.V normalized signal (Norm_5 replicates): 0.876 and 0.937
CENP.A.R.V normalized signal (Norm_5 replicates): 0.837 and 1.027
CHD1L.R.V normalized signal (Norm_5 replicates): 0.984 and 0.980 and 1.062
CIITA.R.C normalized signal (Norm_5 replicates): 0.906 and 1.032 and 0.908
COG3.R.V normalized signal (Norm_5 replicates): 1.065 and 1.046 and 1.027
CRABP1.R.C normalized signal (Norm_5 replicates): 0.859 and 0.948
CRABP2.R.V normalized signal (Norm_5 replicates): 0.835 and 0.922
CREB_pS133.R.C normalized signal (Norm_5 replicates): 0.973 and 1.049
CSK.R.C normalized signal (Norm_5 replicates): 0.899 and 0.615
Calnexin.R.V normalized signal (Norm_5 replicates): 0.886 and 0.995 and 1.007
Caspase.3.cleaved.R.C normalized signal (Norm_5 replicates): 1.021 and 1.056
Caspase.7.cleaved..R.C normalized signal (Norm_5 replicates): 0.975 and 1.120
Caspase.8.M.Q normalized signal (Norm_5 replicates): 0.995 and 1.011
Caspase.8.cleaved.R.C normalized signal (Norm_5 replicates): 0.959 and 0.968 and 1.018
Caveolin.1.R.V normalized signal (Norm_5 replicates): 0.695 and 1.083 and 0.788
Cdc6.R.V normalized signal (Norm_5 replicates): 1.013 and 0.837
Cdc42.R.C normalized signal (Norm_5 replicates): 0.983 and 0.959
Chk1.M.C normalized signal (Norm_5 replicates): 0.847 and 0.901 and 0.979
Chk1_pS296.R.V normalized signal (Norm_5 replicates): 1.011 and 0.821 and 1.014
Chk1_pS345.R.C normalized signal (Norm_5 replicates): 1.085 and 0.937
Chk2.M.V normalized signal (Norm_5 replicates): 0.877 and 0.935 and 0.746
Chk2_pT68.R.C normalized signal (Norm_5 replicates): 1.018 and 1.050 and 1.112
Claudin.7.R.V normalized signal (Norm_5 replicates): 0.960 and 0.997 and 0.822
Collagen.VI.R.V normalized signal (Norm_5 replicates): 1.125 and 1.077 and 1.148
Complex.II.Subunit.M.V normalized signal (Norm_5 replicates): 0.952 and 1.023
Connexin.43.R.C normalized signal (Norm_5 replicates): 1.236 and 0.956
Coup.TFII.R.C normalized signal (Norm_5 replicates): 1.082 and 1.017
Cox2.R.C normalized signal (Norm_5 replicates): 1.108 and 1.155 and 1.142
Cox.IV.R.V normalized signal (Norm_5 replicates): 1.004 and 1.021
Creb.R.C normalized signal (Norm_5 replicates): 1.017
CtIP.R.V normalized signal (Norm_5 replicates): 1.022 and 0.990 and 0.914
Cyclin.B1.R.V normalized signal (Norm_5 replicates): 0.618 and 1.059 and 1.239
Cyclin.D1.R.C normalized signal (Norm_5 replicates): 0.917 and 1.018
Cyclin.D3.M.V normalized signal (Norm_5 replicates): 0.934 and 0.919 and 0.861
Cyclin.E1.R.V normalized signal (Norm_5 replicates): 0.930 and 0.904 and 0.974
Cyclophilin.F.M.V normalized signal (Norm_5 replicates): 0.842 and 0.856
D.a.Tubulin.R.V normalized signal (Norm_5 replicates): 1.019 and 1.128
DAPK1_pS308.M.C normalized signal (Norm_5 replicates): 1.353 and 1.627 and 0.788
DAPK2.R.C normalized signal (Norm_5 replicates): 1.191 and 1.026
DDB.1.R.V normalized signal (Norm_5 replicates): 1.062 and 0.816 and 1.300
DDR1.R.V normalized signal (Norm_5 replicates): 0.866 and 0.933 and 1.046
DDR1_pY513.R.C normalized signal (Norm_5 replicates): 0.890 and 1.005 and 1.047
DJ1.R.V normalized signal (Norm_5 replicates): 1.019 and 1.054
DM.Histone.H3.R.V normalized signal (Norm_5 replicates): 0.978 and 1.119 and 1.017
DM.K9.Histone.H3.M.V normalized signal (Norm_5 replicates): 0.882 and 0.936 and 0.982
DNA.Ligase.IV.R.C normalized signal (Norm_5 replicates): 1.083 and 0.953
DNA_POLG.R.V normalized signal (Norm_5 replicates): 1.009 and 1.004
c.Jun_pS73.R.V normalized signal (Norm_5 replicates): 0.798 and 0.640 and 0.915
c.Kit.R.V normalized signal (Norm_5 replicates): 1.128 and 0.954
c.Met_pY1234_Y1235.R.V normalized signal (Norm_5 replicates): 0.983 and 1.008 and 1.024
c.Myc.R.C normalized signal (Norm_5 replicates): 0.935 and 1.002
cGAS.R.V normalized signal (Norm_5 replicates): 0.859 and 0.966 and 1.027
cdc2_pY15.R.C normalized signal (Norm_5 replicates): 1.026 and 1.124
cdc25C.R.V normalized signal (Norm_5 replicates): 0.919 and 0.928 and 0.857
MYH11.R.C Average (Norm_10, normalized to Norm_0): 1.438
Myosin.IIa.R.C Average (Norm_10, normalized to Norm_0): 1.143
Myosin.IIa_pS1943.R.V Average (Norm_10, normalized to Norm_0): 1.250
Myt1.R.C Average (Norm_10, normalized to Norm_0): 0.974
N.Cadherin.R.V Average (Norm_10, normalized to Norm_0): 1.013
N.Ras.M.V Average (Norm_10, normalized to Norm_0): 0.937
NAPSIN.A.R.C Average (Norm_10, normalized to Norm_0): 1.005
NDRG1_pT346.R.V Average (Norm_10, normalized to Norm_0): 1.345
NDUFB4.R.V Average (Norm_10, normalized to Norm_0): 1.030
NRF2.R.C Average (Norm_10, normalized to Norm_0): 0.980
Notch1.R.V Average (Norm_10, normalized to Norm_0): 0.957
Notch1.cleaved.R.V Average (Norm_10, normalized to Norm_0): 0.977
Notch3.R.C Average (Norm_10, normalized to Norm_0): 1.054
Oct.4.R.C Average (Norm_10, normalized to Norm_0): 1.008
P.Cadherin.R.C Average (Norm_10, normalized to Norm_0): 1.101
PAI.1.M.V Average (Norm_10, normalized to Norm_0): 0.931
PAICS.R.C Average (Norm_10, normalized to Norm_0): 0.957
PAK1.R.V Average (Norm_10, normalized to Norm_0): 0.905
PAK4.R.V Average (Norm_10, normalized to Norm_0): 1.019
PAK_pS474_S602_S560.R.V Average (Norm_10, normalized to Norm_0): 1.098
PAK_pT423_T402.R.C Average (Norm_10, normalized to Norm_0): 1.015
PAR.R.C Average (Norm_10, normalized to Norm_0): 1.104
PARG.R.C Average (Norm_10, normalized to Norm_0): 1.019
PARP.R.V Average (Norm_10, normalized to Norm_0): 1.149
PAX6.R.V Average (Norm_10, normalized to Norm_0): 0.956
PAX8.R.C Average (Norm_10, normalized to Norm_0): 1.011
PCNA.M.C Average (Norm_10, normalized to Norm_0): 0.988
PD.1.R.V Average (Norm_10, normalized to Norm_0): 0.998
PD.L1.R.C Average (Norm_10, normalized to Norm_0): 0.960
PDH.M.V Average (Norm_10, normalized to Norm_0): 0.958
PDK1.R.V Average (Norm_10, normalized to Norm_0): 1.058
PDK1_pS241.R.V Average (Norm_10, normalized to Norm_0): 0.934
PEA.15.R.V Average (Norm_10, normalized to Norm_0): 1.020
PEA.15_pS116.R.V Average (Norm_10, normalized to Norm_0): 0.996
PERK.R.V Average (Norm_10, normalized to Norm_0): 1.061
PHGDH.R.C Average (Norm_10, normalized to Norm_0): 0.964
PHLPP.R.V Average (Norm_10, normalized to Norm_0): 1.190
PI3K.p85.R.C Average (Norm_10, normalized to Norm_0): 1.002
PI3K.p110.a.R.C Average (Norm_10, normalized to Norm_0): 0.864
PI3K.p110.b.M.C Average (Norm_10, normalized to Norm_0): 0.990
PKA.a.R.V Average (Norm_10, normalized to Norm_0): 0.941
PKC.a.b.II_pT638_T641.R.V Average (Norm_10, normalized to Norm_0): 0.894
PKC.b.II_pS660.R.V Average (Norm_10, normalized to Norm_0): 0.986
PKCa.R.V Average (Norm_10, normalized to Norm_0): 1.017
PKM2.R.C Average (Norm_10, normalized to Norm_0): 1.046
PLC.gamma1.R.V Average (Norm_10, normalized to Norm_0): 1.192
PLC.gamma1_pS1248.R.V Average (Norm_10, normalized to Norm_0): 1.153
PLC.gamma2_pY759.R.V Average (Norm_10, normalized to Norm_0): 1.003
PLK1.R.C Average (Norm_10, normalized to Norm_0): 0.886
PMS2.R.V Average (Norm_10, normalized to Norm_0): 1.014
PR.R.V Average (Norm_10, normalized to Norm_0): 0.988
PRAS40.M.C Average (Norm_10, normalized to Norm_0): 1.046
PRAS40_pT246.R.V Average (Norm_10, normalized to Norm_0): 1.016
PRC1_pT481.R.C Average (Norm_10, normalized to Norm_0): 1.014
Patched.R.C Average (Norm_10, normalized to Norm_0): 0.952
Paxillin.R.C Average (Norm_10, normalized to Norm_0): 0.862
Pdcd4.R.C Average (Norm_10, normalized to Norm_0): 0.987
Porin.M.V Average (Norm_10, normalized to Norm_0): 1.053
p21.R.C Average (Norm_10, normalized to Norm_0): 0.934
p27_pT157.R.C Average (Norm_10, normalized to Norm_0): 1.162
p27_pT198.R.V Average (Norm_10, normalized to Norm_0): 1.113
